According to patent publication US4512976A, “Antibiotic stubomycin and process for the production thereof” (The Kitasato Institute, priority 1980, dated 1985):
≈ marks a conversion by molar mass, not a printed value.

Key:
Aspergillus niger = test: Antimicrobial activity, MIC by agar dilution method; type: cell-based
Saccharomyces sake = test: as above; type: cell-based
leukemia P388 = test: Antitumor activity on leukemia P388; settings: i.p.; for ILS (Increased life span) P388: vs untreated control
Xanthomonas oryzae = type: cell-based; settings: agar dilution method
mice = test: Acute toxicity in mice; type: in vivo
Method: Acute toxicity (LD50) in mice; approximately 400 mg/kg (i.p.), and over 1000 mg/kg (p.o.)

Alternaria kikuchiana = test: Antimicrobial activity, MIC by agar dilution method; type: cell-based
Candida albicans = test: as above; type: cell-based
[1] = test system: Staphylococcus aureus FDA-209P; test: as above; type: cell-based
[2] = test system: Ehrlich ascites carcinoma; test: Antitumor activity on Ehrlich ascites carcinoma; settings: i.p.; for ILS (Increased life span) Ehrlich: vs untreated control
[3] = test system: Bacillus subtilis PCI 219; test: Antimicrobial activity, MIC by agar dilution method; type: cell-based; settings: Bacillus subtilis PCI 219, agar dilution method
Pseudomonas aeruginosa = test: as above; type: cell-based
Microsporum gypseum = test: as above; type: cell-based
Piricularia oryzae = type: cell-based
Sarcina lutea ATCC 1001 = test: Antimicrobial activity, MIC by agar dilution method; type: cell-based; settings: Sarcina lutea ATCC 1001, agar dilution method
Escherichia coli NIHJ = test: as above; type: cell-based
Mycobacterium smegmatis = test: as above; type: cell-based
[4] = test system: Trichophyton interdigitalis; test: as above; type: cell-based
[5] = Day 1, 75 mg/kg/day, total 75 mg/kg
[6] = Day 1, 150 mg/kg/day, total 150 mg/kg
[7] = Day 1, 300 mg/kg/day, total 300 mg/kg
[8] = Days 1, 5, 9, 25 mg/kg/day, total 75 mg/kg
[9] = Days 1, 5, 9, 50 mg/kg/day, total 150 mg/kg
[10] = Days 1~9, 8.8 mg/kg/day, total 75 mg/kg
[11] = Days 1~9, 16.7 mg/kg/day, total 150 mg/kg
[12] = Days 1~9, 33.3 mg/kg/day, total 300 mg/kg

Structure (SMILES): CO[C@H]1C[C@@H]2\C=C(C)/C=C/C=C\C(=O)N[C@H](c3ccccc3)C/C=C/CC[C@H](O)CC(=O)C2=C1O [stubomycin]
- Minimum inhibitory concentration (MIC) (Aspergillus niger): > 100 µg/mL
- Minimum inhibitory concentration (MIC) (Saccharomyces sake): > 200 µg/mL
- MSD (Median survival day) P388 (leukemia P388; [5]): 17 days
- ILS (Increased life span) P388 (leukemia P388; [5]): 42%
- MSD (Median survival day) P388 (leukemia P388; [6]): 17 days
- ILS (Increased life span) P388 (leukemia P388; [6]): 42%
- MSD (Median survival day) P388 (leukemia P388; [7]): 17 days
- ILS (Increased life span) P388 (leukemia P388; [7]): 42%
- MSD (Median survival day) P388 (leukemia P388; [8]): 16 days
- ILS (Increased life span) P388 (leukemia P388; [8]): 33%
- MSD (Median survival day) P388 (leukemia P388; [9]): 15 days
- ILS (Increased life span) P388 (leukemia P388; [9]): 25%
- MSD (Median survival day) P388 (leukemia P388; [10]): 15 days
- ILS (Increased life span) P388 (leukemia P388; [10]): 25%
- MSD (Median survival day) P388 (leukemia P388; [11]): 11 days
- ILS (Increased life span) P388 (leukemia P388; [11]): -8%
- MSD (Median survival day) P388 (leukemia P388; [12]): 9 days
- ILS (Increased life span) P388 (leukemia P388; [12]): -25%
- Minimum inhibitory concentration (MIC) (Xanthomonas oryzae): > 100 µg/mL
- Acute toxicity (LD50) (mice; i.p.): approximately 400 mg/kg
- Acute toxicity (LD50) (mice; p.o.): over 1000 mg/kg
- Minimum inhibitory concentration (MIC) (Alternaria kikuchiana): 6.3 µg/mL (≈ 13.2 µM)
- Minimum inhibitory concentration (MIC) (Candida albicans): > 100 µg/mL
- Minimum inhibitory concentration (MIC) [1]: 3.1 µg/mL (≈ 6.49 µM)
- MSD (Median survival day) Ehrlich [2, 5]: 28 days
- Number of cured mice, Ehrlich [2, 5]: 1
- ILS (Increased life span) Ehrlich [2, 5]: 47%
- MSD (Median survival day) Ehrlich [2, 6]: 51 days
- ILS (Increased life span) Ehrlich [2, 6]: 168%
- MSD (Median survival day) Ehrlich [2, 7]: 21 days
- ILS (Increased life span) Ehrlich [2, 7]: 11%
- MSD (Median survival day) Ehrlich [2, 8]: 33 days
- Number of cured mice, Ehrlich [2, 8]: 1
- ILS (Increased life span) Ehrlich [2, 8]: 74%
- MSD (Median survival day) Ehrlich [2, 9]: 16 days
- ILS (Increased life span) Ehrlich [2, 9]: -16%
- ILS (Increased life span) Ehrlich [2, 10]: 11%
- MSD (Median survival day) Ehrlich [2, 11]: 50 days
- Number of cured mice, Ehrlich [2, 11]: 1
- ILS (Increased life span) Ehrlich [2, 11]: 163%
- MSD (Median survival day) Ehrlich [2, 12]: 33 days
- Number of cured mice, Ehrlich [2, 12]: 1
- ILS (Increased life span) Ehrlich [2, 12]: 74%
- MSD (Median survival day) Ehrlich ([2]; Days 1~9, total 75 mg/kg): 21 days
- Minimum inhibitory concentration (MIC) [3]: 0.4 µg/mL (≈ 0.838 µM)
- Minimum inhibitory concentration (MIC) (Pseudomonas aeruginosa): > 200 µg/mL
- Minimum inhibitory concentration (MIC) (Microsporum gypseum): 12.5 µg/mL (≈ 26.2 µM)
- Minimum inhibitory concentration (MIC) (Piricularia oryzae): 3.1 µg/mL (≈ 6.49 µM)
- Minimum inhibitory concentration (MIC) (Sarcina lutea ATCC 1001): 0.4 µg/mL (≈ 0.838 µM)
- Minimum inhibitory concentration (MIC) (Escherichia coli NIHJ): > 200 µg/mL
- Minimum inhibitory concentration (MIC) (Mycobacterium smegmatis): 3.1 µg/mL (≈ 6.49 µM)
- Minimum inhibitory concentration (MIC) [4]: 6.3 µg/mL (≈ 13.2 µM)
